Results from patent US9079866B2, “Flap modulators” (JANSSEN PHARMACEUTICA NV, priority 2013, dated 2015).
pIC50, pKi: −log10 of the molar value. Structures can show the parent of a compound that is named as a salt. Where two headings read alike, the source gives them in different places.

Legend:
human FLAP = human FLAP (Homo sapiens (Human), UniProt P20292); test: FLAP binding assay (HTRF format)
How it was run: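 Read-out is the HTRF ratio. Each reported figure averages two assay plates on which samples were tested in duplicate.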

[1] = tested on: leukotriene pathway in human whole blood (LTB4 levels); test: Human whole blood assay (A23187-stimulated LTB4); type: cell-based; settings: Homo sapiens, read-out: LTB4 IC50 1:1
How it was run: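 Heparinised human whole blood diluted 1:1 in RPMI, pre-incubated 15 min at 37° Celsius with compound, then stimulated with A23187 (7 μg/mL) for 30 min at 37° Celsius. Plasma LTB4 measured by immunoassay kit; IC50 from 4-parameter fit; single replicate per plate, at least one healthy donor.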

[2] = human FLAP wild type, HTRF format, average of two plates, duplicates
[3] = human whole blood diluted 1:1 in RPMI, A23187-stimulated LTB4
[4] = human whole blood diluted 1:1, A23187-stimulated
[5] = read-out: FLAP Binding wild type HTRF Ki

human FLAP, sequence (P20292 whole entry): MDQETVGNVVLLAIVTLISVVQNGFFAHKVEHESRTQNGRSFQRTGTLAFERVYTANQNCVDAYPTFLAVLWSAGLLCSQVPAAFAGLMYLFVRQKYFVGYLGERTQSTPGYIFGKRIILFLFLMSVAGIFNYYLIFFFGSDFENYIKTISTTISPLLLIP

| Compound | pKi (human FLAP; [2]) | pIC50 [1, 3] | pKi (human FLAP; wild type FLAP, HTRF format) | pIC50 [1, 4] | pKi (human FLAP; [5]) |
| --- | --- | --- | --- | --- | --- |
| Nc1cnc(-c2ccc(-c3cccnc3OC3CCCC3)cc2F)cn1 [Example 402, 5-{4-[2-(Cyclopentyloxy)pyridin-3-yl]-2-fluorophenyl}pyrazin-2-amine] | – | – | 7.04 | 6.28 | – |
| O=S(=O)(c1ccccc1-c1ccc(-c2cnc3[nH]ccc3n2)c(F)c1)N1CCCC1 [Example 372, 2-[3-Fluoro-2′-(pyrrolidin-1-ylsulfonyl)biphenyl-4-yl]-5H-pyrrolo[2,3-b]pyrazine] | 7.60 | 7.51 | – | – | – |
| CNC(=O)C1CN(S(=O)(=O)c2ccccc2-c2ccc(-c3cnc(N)nc3)c(F)c2)C1 [Example 705, 1-{[4′-(2-Aminopyrimidin-5-yl)-3′-fluorobiphenyl-2-yl]sulfonyl}-N-methylazetidine-3-carboxamide] | – | – | 7.06 | 6.54 | – |
| Nc1ncc(-c2ccc(-c3ccccc3Oc3ccnc(N)n3)cc2F)cn1 [Example 534, 4-{[4′-(2-Aminopyrimidin-5-yl)-3′-fluorobiphenyl-2-yl]oxy}pyrimidin-2-amine] | – | – | 7.92 | 7.16 | – |
| Nc1cnc(-c2ccc(-c3ccccc3S(=O)(=O)N[C@@H](CO)[C@@H](O)c3ccccc3)cc2F)cn1 [Example 78, 4′-(5-Aminopyrazin-2-yl)-3′-fluoro-N-[(1S,2S)-2-hydroxy-1-(hydroxymethyl)-2-phenylethyl]biphenyl-2-sulfonamide] | 9.00 | 6.78 | – | – | – |
| Nc1cnc(-c2ccc(-c3ccccc3CS(=O)(=O)N[C@H]3CC[C@H](O)CC3)cc2F)cn1 [Example 226, 1-[4′-(5-Aminopyrazin-2-yl)-3′-fluorobiphenyl-2-yl]-N-(trans-4-hydroxycyclohexyl)-methanesulfonamide formic acid salt] | – | 6.48 | – | – | 6.68 |
| CCCS(=O)(=O)Nc1ccccc1-c1ccc(-c2cnc(N)cn2)c(F)c1 [Example 36, N-[4′-(5-Aminopyrazin-2-yl)-3′-fluorobiphenyl-2-yl]propane-1-sulfonamide] | – | 6.92 | – | – | 8.00 |
| Nc1cnc(-c2ccc(-c3ccccc3S(=O)(=O)N3CCC(n4cn[nH]c4=O)CC3)cc2F)cn1 [Example 129, 4-(1-{[4′-(5-Aminopyrazin-2-yl)-3′-fluorobiphenyl-2-yl]sulfonyl}piperidin-4-yl)-2,4-dihydro-3H-1,2,4-triazol-3-one] | 8.40 | 6.27 | – | – | – |
| N#Cc1ccc(Oc2ccccc2-c2ccc(-c3cnc(N)cn3)c(F)c2)nc1 [Example 626, 6-{[4′-(5-Aminopyrazin-2-yl)-3′-fluorobiphenyl-2-yl]oxy}pyridine-3-carbonitrile] | – | – | 8.21 | 7.34 | – |
| Nc1cc(Oc2cc(C(F)(F)F)ccc2-c2ccc(-c3cnc(N)nc3)c(F)c2)ncn1 [Example 561, 5-{2′-[(6-Aminopyrimidin-4-yl)oxy]-3-fluoro-4′-(trifluoromethyl)biphenyl-4-yl}pyrimidin-2-amine] | – | – | 8.40 | 7.37 | – |
| C[C@@H](CO)NC(=O)c1cc(C(F)(F)F)ccc1-c1ccc(-c2cnc(N)cn2)c(F)c1 [Example 786, 2-[4-(5-Aminopyrazin-2-yl)-3-fluoro-phenyl]-N-[(1S)-2-hydroxy-1-methyl-ethyl]-5-(trifluoromethyl)benzamide] | – | – | 7.22 | 6.98 | – |
| C[C@H](CO)NS(=O)(=O)c1ccccc1-c1ccc(-c2cnc(N)nc2)c(F)c1 [Example 289, 4′-(2-Aminopyrimidin-5-yl)-3′-fluoro-N-[(1R)-2-hydroxy-1-methylethyl]biphenyl-2-sulfonamide] | 7.66 | 7.44 | – | – | – |
| CC(CO)Oc1ncccc1-c1ccc(-c2cnc(N)cn2)c(F)c1 (stereo in doubt) [Example 655, (2R)-2-({3-[4-(5-Aminopyrazin-2-yl)-3-fluorophenyl]pyridin-2-yl}oxy)propan-1-ol] | – | – | 6.30 | 5.74 | – |
| C[C@@H](NC(=O)c1cc(C(F)(F)F)ccc1-c1ccc(-c2cnc(N)cn2)c(F)c1)C(F)(F)F [Example 787, 2-[4-(5-Aminopyrazin-2-yl)-3-fluoro-phenyl]-5-(trifluoromethyl)-N-[(1R)-2,2,2-trifluoro-1-methyl-ethyl]benzamide] | – | – | 8.04 | 7.01 | – |
| Nc1ncc(-c2ccc(-c3ccccc3NS(=O)(=O)N3CCCC3)cc2F)cn1 [Example 309, N-[4′-(2-Aminopyrimidin-5-yl)-3′-fluorobiphenyl-2-yl]pyrrolidine-1-sulfonamide] | 6.67 | 5.75 | – | – | – |
| Nc1ccc(Oc2ccccc2-c2ccc(-c3cnc(N)nc3)c(F)c2)nc1 [Example 621, 5-{2′-[(5-Aminopyridin-2-yl)oxy]-3-fluorobiphenyl-4-yl}pyrimidin-2-amine] | – | – | 8.30 | 7.00 | – |
| Nc1ccc(-c2ccc(-c3ccccc3S(=O)(=O)N3CCC(CCO)CC3)cc2F)cn1 [Example 359, 2-(1-((4′-(6-Aminopyridin-3-yl)-3′-fluoro-[1,1′-biphenyl]-2-yl)sulfonyl)piperidin-4-yl)ethanol] | 8.40 | 7.27 | – | – | – |
| Nc1ncc(-c2ccc(-c3ccccc3S(=O)(=O)N3CCC(F)(F)C3)cn2)cn1 [Example 680, 5-(5-{2-[(3,3-Difluoropyrrolidin-1-yl)sulfonyl]phenyl}pyridin-2-yl)pyrimidin-2-amine trifluoroacetic acid salt] | – | – | – | 5.98 | 6.21 |
| CC(=O)N1CCN(S(=O)(=O)c2ccccc2-c2ccc(-c3cnc(N)cn3)c(F)c2)CC1 [Example 57, 5-{2′-[(4-Acetylpiperazin-1-yl)sulfonyl]-3-fluorobiphenyl-4-yl}pyrazin-2-amine] | 7.82 | 6.60 | – | – | – |
| Cc1ccnc(Oc2ccccc2-c2ccc(-c3cnc(N)cn3)c(F)c2)n1 [Example 545, 5-{3-Fluoro-2′-[(4-methylpyrimidin-2-yl)oxy]biphenyl-4-yl}pyrazin-2-amine] | – | – | 7.92 | 7.30 | – |

Further lines, with some results ahead:

| pKi (human FLAP; [2]) | pIC50 [1, 3] | pKi (human FLAP; wild type FLAP, HTRF format) | pIC50 [1, 4] | Compound | pKi (human FLAP; [5]) |
| --- | --- | --- | --- | --- | --- |
| 8.70 | 7.82 | – | – | CC1(NS(=O)(=O)c2ccccc2-c2ccc(-c3cnc(N)cn3)c(F)c2)CCC1 [Example 11, 4′-(5-Aminopyrazin-2-yl)-3′-fluoro-N-(1-methylcyclobutyl)biphenyl-2-sulfonamide] | – |
| – | – | 9.00 | 7.03 | CC(C)(C)NS(=O)(=O)c1ccccc1-c1ccc(-c2cnc3[nH]cc(CO)c3c2)c(F)c1 [Example 455, N-tert-Butyl-3′-fluoro-4′-[3-(hydroxymethyl)-1H-pyrrolo[2,3-b]pyridin-5-yl]biphenyl-2-sulfonamide] | – |
| – | – | 7.39 | 6.68 | CS(=O)(=O)c1ccccc1-c1ccc(-c2cnc(N)cn2)c(F)c1F [Example 461, 5-[2,3-Difluoro-2′-(methylsulfonyl)biphenyl-4-yl]pyrazin-2-amine] | – |
| 8.00 | 7.08 | – | – | Nc1cnc(-c2ccc(-c3ccccc3S(=O)(=O)C3CC3)cc2F)cn1 [Example 197, 5-[2′-(Cyclopropylsulfonyl)-3-fluorobiphenyl-4-yl]pyrazin-2-amine] | – |
| – | – | 7.98 | 7.38 | COc1ncc(-c2ccccc2-c2ccc(-c3cnc(N)cn3)c(F)c2)cn1 [Example 846, 5-[3-Fluoro-2′-(2-methoxypyrimidin-5-yl)biphenyl-4-yl]pyrazin-2-amine] | – |
| 8.52 | 7.01 | – | – | CC[C@H](C)[C@@H](CO)NS(=O)(=O)c1ccccc1-c1ccc(-c2cnc(N)cn2)c(F)c1 [Example 84, 4′-(5-Aminopyrazin-2-yl)-3′-fluoro-N-[(1S,2S)-1-(hydroxymethyl)-2-methylbutyl]biphenyl-2-sulfonamide] | – |
| 9.00 | 6.94 | – | – | CC(C)(C)OC(=O)NCCNS(=O)(=O)c1ccccc1-c1ccc(-c2cnc(N)cn2)c(F)c1 [Example 151, tert-Butyl [2-({[4′-(5-aminopyrazin-2-yl)-3′-fluorobiphenyl-2-yl]sulfonyl}amino)ethyl]carbamate] | – |
| – | – | 8.05 | 6.78 | CC(C)(C)NS(=O)(=O)c1ccccc1-c1ccc(-c2ncc(N)nc2C#N)c(F)c1 [Example 435, 4′-(5-Amino-3-cyanopyrazin-2-yl)-N-tert-butyl-3′-fluorobiphenyl-2-sulfonamide] | – |
| 7.70 | 6.66 | – | – | CN(C)S(=O)(=O)Nc1ccccc1-c1ccc(-c2cnc(N)cn2)c(F)c1 [Example 182, N′-[4′-(5-Aminopyrazin-2-yl)-3′-fluorobiphenyl-2-yl]-N,N-dimethylsulfamide] | – |
| – | – | 7.66 | 7.10 | CNS(=O)(=O)c1ccccc1-c1ccc(-c2cnc(N)c(C)n2)c(F)c1 [Example 449, 4′-(5-Amino-6-methylpyrazin-2-yl)-3′-fluoro-N-methylbiphenyl-2-sulfonamide] | – |
| – | – | 7.85 | 7.04 | CCN(CC)C(=O)c1ccccc1-c1ccc(-c2cnc(N)cn2)c(F)c1 [Example 503, 4′-(5-Aminopyrazin-2-yl)-N,N-diethyl-3′-fluorobiphenyl-2-carboxamide] | – |
| – | – | 7.59 | 6.23 | COc1c(-c2ccccc2S(=O)(=O)NC(C)(C)C)ccc(-c2cnc(N)cn2)c1F [Example 836, 4′-(5-Aminopyrazin-2-yl)-N-tert-butyl-3′-fluoro-2′-methoxybiphenyl-2-sulfonamide] | – |
| 8.70 | 7.32 | – | – | Nc1cnc(-c2ccc(-c3ccccc3S(=O)(=O)NC3CCc4ccccc43)cc2F)cn1 (stereo in doubt) [Example 22, (S)-4′-(5-Aminopyrazin-2-yl)-N-[(1S)-2,3-dihydro-1H-inden-1-yl]-3′-fluorobiphenyl-2-sulfonamide] | – |
| 9.00 | 7.92 | – | – | CC(C)(C)NS(=O)(=O)c1ccccc1-c1ccc(-c2cnc3c(c2)OCCN3)c(F)c1 [Example 393, N-tert-Butyl-4′-(3,4-dihydro-2H-pyrido[3,2-b][1,4]oxazin-7-yl)-3′-fluorobiphenyl-2-sulfonamide] | – |
